Where “and” joins values, the source holds several entries; their conditions need not be identical. Identical values can stand only once.
Columns and labels:
[1] = Bleeding time by modified Ivy method; parameters: species or system humans; conditions: in vivo
[2] = Phase 2 study (P03573): bleeding in secondary cohort (medically treated); assay type: in vivo, humans
Description: (§1) The behavior of SCH 530348 in humans was further studied in a Phase 2 clinical development program. A key safety issue for SCH 530348 is the potential for incremental bleeding when added to standard of care with other oral antiplatelet therapies as well as parenteral antithrombotics. Therefore, a single Phase 2 study (P03573) was completed to evaluate the safety of SCH 530348 in patients at high risk of bleeding events, i.e., those patients undergoing non-emergent PCI (percutaneous coronary intervention). The goals of this Phase 2 study were to: • Evaluate the safety of SCH 530348 in addition to standard of care with respect to TIMI major and minor bleeding; and, • Observe the effects of SCH 530348 on major adverse cardiac events (“MACE”) in patients successfully completing an interventional procedure.
The primary endpoint (directed to evaluating safety) was the combined […] (“TIMI”) major and TIMI minor bleeding over sixty days in the primary evaluable cohort. Though the study was not powered to evaluate efficacy, a secondary endpoint (directed to evaluating efficacy) was the incidence of the composite of death and major adverse cardiac events (“MACE”) in the primary cohort. MACE includes myocardial infarction, urgent revascularization, and ischemia requiring hospitalization. Pharmacokinetics and pharmacodynamics were assessed at selected sites across the treatment groups. Other secondary endpoints included the incidence of TIMI major and minor bleeding in the secondary evaluable cohort i.e., those individuals who received the loading dose only.
The secondary cohort consisted of non-PCI patients who were treated medically (n=382) or underwent CABG (n=75). […] These included two vascular access site and one post-operative (surgical hip replacement) bleed.

human platelets = assay: TRAP stimulated human platelet aggregation; assay type: cell-based
Description: Schering-Plough Corp. is developing SCH 530348, which is a selective inhibitor of the primary thrombin receptor, PAR-1 (protease-activated receptor-1), on human platelets. […] Current clinical development of SCH 530348 is directed toward approval of a therapy that is adjunctive to current standard of care, e.g., the ADP antagonist clopidogrel and aspirin. However, an avoidance of bleeding risk by administration of an appropriate thrombin receptor antagonist as a monotherapy may have potential advantages over some of the currently approved antiplatelet drugs such as Plavix® (clopidogrel) and Ticlid® (ticolpidine) in certain situations such as PCI. Furthermore, the standard of care may evolve to encompass other ADP antagonists such as prasugrel. The treatment of PCI patients by administration of a thrombin receptor antagonist as adjunctive therapy to the standard of care encompasses future standards of care such as prasugrel, or any other ADP antagonist, and aspirin.

platelets [3] = assay: Ex-vivo platelet aggregation in whole blood; parameters: species or system cynomolgus monkeys; conditions: oral dose of 0.1 mg/kg
platelets [4] = assay: Platelet activation (expression of P-selectin or CD40 ligand); parameters: species or system humans; conditions: in vivo
platelets [5] = assay: Arachidonic acid (AA)-induced platelet aggregation; assay type: in vivo, humans; conditions: loading and maintenance doses
Protocol: A pharmacodynamic substudy incorporating light aggregometry was performed under stringent physiologic conditions and read by a central core laboratory. […] The term “therpeutically effective amount of a thrombin receptor antagonist” will be understood to mean that quantity of the thrombin receptor antagonist sufficient to achieve at least 80% inhibition of TRAP mediated platelet aggregation.
Similarly, there is no effect on arachidonic acid (“AA”) -induced platelet aggregation (see FIGS. 16 and 17) or collagen-induced platelet aggregation (see FIGS. 18-21).

hERG = hERG (Homo sapiens, UniProt Q12809); assay: hERG voltage clamp assay; assay type: cell-based
[6] = Phase 2 study (P03573): bleeding in secondary cohort undergoing CABG; assay type: in vivo, humans; conditions: for Any bleed, patients (%) / Chest Tube Drainage / TIMI Major/Minor bleeding, patients (%) / Transfusion PRBC, patients (%) / non-TIMI bleeding, patients (%): secondary cohort (CABG treated)
Description: as §1
The use of TIMI bleeding classification alone is of limited value and can be misleading in defining bleeding risk in patients undergoing CABG because of the routine use of packed red blood cell (“PRBC”) transfusions to prime the pump and extracorporeal oxygenator, and the resultant decline in hemoglobin that results from the administration of parenteral fluids during surgery. Therefore, other clinically meaningful measures (e.g., chest tube drainage, transfusions, need for re-exploration) were examined.

Sequence of hERG (Q12809 whole entry, the tested form may be a part): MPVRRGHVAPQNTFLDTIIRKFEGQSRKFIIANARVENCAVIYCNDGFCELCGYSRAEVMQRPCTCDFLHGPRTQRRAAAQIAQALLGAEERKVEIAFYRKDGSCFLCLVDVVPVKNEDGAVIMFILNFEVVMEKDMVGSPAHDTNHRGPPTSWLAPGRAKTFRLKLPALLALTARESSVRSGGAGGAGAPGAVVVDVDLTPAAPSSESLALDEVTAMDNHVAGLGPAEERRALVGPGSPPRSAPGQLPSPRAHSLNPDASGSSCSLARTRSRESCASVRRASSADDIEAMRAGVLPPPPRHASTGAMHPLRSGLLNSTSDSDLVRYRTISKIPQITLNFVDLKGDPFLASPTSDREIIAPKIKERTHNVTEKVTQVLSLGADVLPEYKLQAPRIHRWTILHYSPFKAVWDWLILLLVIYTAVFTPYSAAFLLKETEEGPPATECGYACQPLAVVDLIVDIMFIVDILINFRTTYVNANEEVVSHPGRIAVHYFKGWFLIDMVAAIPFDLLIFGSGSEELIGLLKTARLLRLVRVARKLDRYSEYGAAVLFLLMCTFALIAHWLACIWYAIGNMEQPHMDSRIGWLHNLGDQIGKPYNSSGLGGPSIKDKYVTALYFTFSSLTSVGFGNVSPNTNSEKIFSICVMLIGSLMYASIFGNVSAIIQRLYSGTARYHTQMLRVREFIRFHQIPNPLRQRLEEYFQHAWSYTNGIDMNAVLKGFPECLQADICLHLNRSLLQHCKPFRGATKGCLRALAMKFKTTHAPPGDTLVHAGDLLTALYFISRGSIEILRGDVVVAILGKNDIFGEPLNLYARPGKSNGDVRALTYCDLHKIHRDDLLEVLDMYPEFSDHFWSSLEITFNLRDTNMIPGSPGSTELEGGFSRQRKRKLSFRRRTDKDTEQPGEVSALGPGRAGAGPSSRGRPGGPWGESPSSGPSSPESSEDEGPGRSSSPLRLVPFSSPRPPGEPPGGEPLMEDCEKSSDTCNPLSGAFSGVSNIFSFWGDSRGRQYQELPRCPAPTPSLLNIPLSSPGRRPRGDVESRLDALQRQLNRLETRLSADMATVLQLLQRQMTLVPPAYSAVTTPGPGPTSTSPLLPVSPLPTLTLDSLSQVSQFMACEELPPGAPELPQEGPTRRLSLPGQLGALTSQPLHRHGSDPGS

Structure (SMILES): CCOC(=O)N[C@@H]1CC[C@@H]2[C@@H](C1)C[C@H]1C(=O)O[C@H](C)[C@H]1[C@H]2/C=C/c1ccc(-c2cccc(F)c2)cn1.O=S(=O)(O)O [SCH 530348, ethyl [(1R,3aR,4aR,6R,8aR,9S,9aS)-9-[(E)-2-[5-(3-fluorophenyl)-2-pyridinyl]ethenyl]-dodecahydro-1-methyl-3-oxonaphtho[2,3-c]furan-6-yl] carbamate bisulfate]
- Increasing bleeding time as measured by a modified Ivy method [1]: without
- Any bleed, patients (%) ([2]; 10 mg loading dose): 8%
- non-TIMI bleeding, patients (%) ([2]; 10 mg loading dose): 8%
- Any bleed, patients (%) ([2]; 20 mg loading dose): 12 (12%)
- TIMI Major/Minor bleeding, patients (%) ([2]; 20 mg loading dose): 2 (2%)
- TIMI Minor bleeding, patients (%) ([2]; 20 mg loading dose): 2 (2%)
- non-TIMI bleeding, patients (%) ([2]; 20 mg loading dose): 11 (11%)
- Any bleed, patients (%) ([2]; 40 mg loading dose): 10%
- TIMI Major/Minor bleeding, patients (%) ([2]; 40 mg loading dose): 1 (1%)
- TIMI Minor bleeding, patients (%) ([2]; 40 mg loading dose): 1 (1%)
- non-TIMI bleeding, patients (%) ([2]; 40 mg loading dose): 10%
- Any bleed, patients (%) ([2]; All SCH 530348): 10%
- TIMI Major/Minor bleeding, patients (%) ([2]; All SCH 530348): 1%
- TIMI Minor bleeding, patients (%) ([2]; All SCH 530348): 1%
- non-TIMI bleeding, patients (%) ([2]; All SCH 530348): 10%
- IC50 (human platelets): 15 nM
- Inhibition of TRAP-driven platelet aggregation (ex-vivo) (platelets [3]): 100%
- Platelet activation (expression of P-selectin or CD40 ligand) (platelets [4]): without activating platelets
- Effect on arachidonic acid (AA)-induced platelet aggregation (platelets [5]): no effect
- IC50 (hERG): ~341 nM
- Total chest tube drainage, proportion with >2 units PRBC transfusion, need for re-exploration versus placebo ([6]; patients who underwent CABG): no increase
- Any bleed, patients (%) ([6]; 10 mg loading dose): 100%
- Chest Tube Drainage ([6]; 10 mg loading dose): 1393 mL
- TIMI Major/Minor bleeding, patients (%) ([6]; 10 mg loading dose): 90%
- Transfusion PRBC, patients (%) ([6]; 10 mg loading dose): 80%
- non-TIMI bleeding, patients (%) ([6]; 10 mg loading dose): 30% and 20%
- Any bleed, patients (%) ([6]; 20 mg loading dose): 100%
- Chest Tube Drainage ([6]; 20 mg loading dose): 1015 mL
- TIMI Major/Minor bleeding, patients (%) ([6]; 20 mg loading dose): 94%
- Transfusion PRBC, patients (%) ([6]; 20 mg loading dose): 50%
- non-TIMI bleeding, patients (%) ([6]; 20 mg loading dose): 33%
- Any bleed, patients (%) ([6]; 40 mg loading dose): 100%
- Chest Tube Drainage ([6]; 40 mg loading dose): 870 mL
- TIMI Major/Minor bleeding, patients (%) ([6]; 40 mg loading dose): 92%
- Transfusion PRBC, patients (%) ([6]; 40 mg loading dose): 63%
- non-TIMI bleeding, patients (%) ([6]; 40 mg loading dose): 39%
- Any bleed, patients (%) ([6]; All SCH 530348): 100%
- Chest Tube Drainage ([6]; All SCH 530348): 988 mL
- TIMI Major/Minor bleeding, patients (%) ([6]; All SCH 530348): 94% and 92%
- Transfusion PRBC, patients (%) ([6]; All SCH 530348): 62%
- non-TIMI bleeding, patients (%) ([6]; All SCH 530348): 35% and 33%

Source: patent US20080234236A1, “REDUCTION OF ADVERSE EVENTS AFTER PERCUTANEOUS INTERVENTION BY USE OF A THROMBIN RECEPTOR ANTAGONIST” (priority 2007, published 2008)
